This assay deals with Gaeumannomyces graminis var. tritici (Ggt). Description: In vitro Assay: mycelial growth of Ggt on minimal media agar plates containing test compound. The class given is cell-based. The note with it: dark, 19-20° C., 4 to 5 days, diameter of mycelial growth; for inhibition at 0.1 ppm / inhibition at 1 ppm / inhibition at 10 ppm: Gaeumannomyces graminis; for inhibition at 0.1 ppm: read-out: In vitro (ppm) 0.1, Percent Inhibition; for inhibition at 1 ppm: read-out: In vitro (ppm) 1, Percent Inhibition; for inhibition at 10 ppm: read-out: In vitro (ppm) 10, Percent Inhibition. Put shortly:
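Ggt mycelial diameter read after 4 to 5 days in darkness at 19-20° C, from three 4-mm plugs placed on Czapek Dox minimal agar containing test compound delivered in acetone. Inhibition expressed as percent versus untreated plates, plug size (4 mm) subtracted from both.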

SMILES strings stand for the structures.

For the compound `CCC(C)SC(=O)c1c(Cl)cccc1[Si](C)(C)C` (stereo not drawn) [Example 80, 2-Chloro-6-(trimethylsilyl)-benzenecarbothioic acid, S-(1-methylpropyl) ester], the inhibition (in general, the percentage by which the read-out fell short of the control) at 0.1 ppm (0.1 ppm in minimal media agar) was < 0%. Also, the inhibition at 1 ppm (1 ppm in minimal media agar) worked out at 4%. In addition, the inhibition at 10 ppm (10 ppm in minimal media agar) amounted to 46%.

As for `CCNC(=O)c1cc(Br)sc1[Si](C)(C)C` [Example 268, 5-Bromo-N-ethyl-2-(trimethylsilyl)-3-thiophenecarboxamide], the inhibition at 0.1 ppm (0.1 ppm in minimal media agar) is < 0%. In addition, the inhibition at 1 ppm (1 ppm in minimal media agar) is < 0%. Moreover, the inhibition at 10 ppm (10 ppm in minimal media agar) was found to be 100%.

Regarding `CCNC(=O)c1c([Si](C)(C)C)ccc(SC)c1Cl` [Example 231, 2-Chloro-N-ethyl-3-(methylthio)-6-(trimethylsilyl)benzamide], the inhibition at 0.1 ppm (0.1 ppm in minimal media agar) is < 0%. Moreover, the inhibition at 1 ppm (1 ppm in minimal media agar) was determined as 76%. In addition, the inhibition at 10 ppm (10 ppm in minimal media agar) worked out at 96%.

Take `CCN(C(=O)c1c(Cl)cccc1[Si](C)(C)C)c1ccccc1` [Example 24, 2-Chloro-N-ethyl-N-phenyl-6-(trimethylsilyl)benzamide]: where the note is “0.1 ppm in minimal media agar”, the inhibition at 0.1 ppm was < 0%. For the same compound, the inhibition at 1 ppm (1 ppm in minimal media agar) was < 0%. Moreover, the inhibition at 10 ppm (10 ppm in minimal media agar) was 100%.

In the case of `C[Si](C)(C)c1cc(Cl)sc1C(=O)NCCO` [Example 263, 5-Chloro-N-(2-hydroxyethyl)-3-trimethylsilyl-2-thiophenecarboxamide], where the note is “0.1 ppm in minimal media agar”, the inhibition at 0.1 ppm amounted to 7%. The inhibition at 1 ppm (1 ppm in minimal media agar) was < 0%. Also, for the setting “10 ppm in minimal media agar”, the inhibition at 10 ppm is 50%.

Regarding `C/C=C\NC(=O)c1c(Cl)cccc1[Si](C)(C)C` [Example 112, (Z)-2-Chloro-N-1-propenyl-6-(trimethylsilyl)benzamide], the inhibition at 0.1 ppm (0.1 ppm in minimal media agar) came out at 81%. The inhibition at 1 ppm (1 ppm in minimal media agar) was 96%. Also, the inhibition at 10 ppm (10 ppm in minimal media agar) worked out at 100%.

Take `CCN(CC)C(=O)c1c(C=O)ccc(F)c1[Si](C)(C)C` [Example 41, N,N-Diethyl-3-fluoro-6-formyl-2-(trimethylsilyl)benzamide]: under “0.1 ppm in minimal media agar”, the inhibition at 0.1 ppm came out at 24%. Also, the inhibition at 1 ppm (1 ppm in minimal media agar) worked out at 21%. Also, the inhibition at 10 ppm (10 ppm in minimal media agar) came to 52%.

Consider `CCNC(=O)c1occc1[Si](C)(C)C` [Example 252, N-Ethyl-3-(trimethylsilyl)-2-furancarboxamide], for which, for the setting “0.1 ppm in minimal media agar”, the inhibition at 0.1 ppm amounted to 5%. In addition, the inhibition at 1 ppm (1 ppm in minimal media agar) turned out to be 28%. Also, for the setting “10 ppm in minimal media agar”, the inhibition at 10 ppm was found to be 100%.

Turning to `CCNC(=O)c1c([Si](C)(C)C)ccc(/C=C/[N+](=O)[O-])c1Cl` [Example 241, 2-Chloro-N-ethyl-3-(2-(E)-nitro-ethenyl)-6-(trimethylsilyl)benzamide], the inhibition at 0.1 ppm (0.1 ppm in minimal media agar) is 13%. For the same compound, where the note is “1 ppm in minimal media agar”, the inhibition at 1 ppm was determined as 87%. Also, for the setting “10 ppm in minimal media agar”, the inhibition at 10 ppm is 100%.

For `C[Si](C)(C)c1cccc(Cl)c1C(=O)Nc1ccccc1C1CCCC1` [Example 158, 2-Chloro-N-(2-cyclopentylphenyl)-6-(trimethylsilyl)benzamide], the inhibition at 0.1 ppm (0.1 ppm in minimal media agar) came out at 2%. In addition, the inhibition at 1 ppm (1 ppm in minimal media agar) was 33%. Besides, under “10 ppm in minimal media agar”, the inhibition at 10 ppm came to 44%.

Turning to `CC(C)NC(=O)c1c(F)cccc1[S+]([O-])C(C)(C)C` (stereo not drawn) [Example 196, N-(1-Methylethyl)-2-[(1,1-dimethylethyl)sulfinyl]-6-fluorobenzamide], where the note is “0.1 ppm in minimal media agar”, the inhibition at 0.1 ppm was determined as 3%. In addition, for the setting “1 ppm in minimal media agar”, the inhibition at 1 ppm was 56%. In addition, the inhibition at 10 ppm (10 ppm in minimal media agar) turned out to be 100%.

For the compound `CC(C)N(O)C(=O)c1c(Cl)cccc1[Si](C)(C)C.[Fe+3].[OH-].[OH-].[OH-]` [Example 168, 2-Chloro-N-hydroxy-N-(1-methylethyl)-6-(trimethylsilyl)benzamide, compd. with iron hydroxide (1:1)], the “In vitro (ppm) 0.1, Percent Inhibition” value (0.1 ppm in minimal media agar) is listed as 57%. Also, the “In vitro (ppm) 1, Percent Inhibition” value (1 ppm in minimal media agar) was 96%. Further, under “10 ppm in minimal media agar”, the “In vitro (ppm) 10, Percent Inhibition” value worked out at 100%.

For `CCNC(=O)c1cccc([N+](=O)[O-])c1[Si](C)(C)C` [Example 246, N-Ethyl-3-nitro-2-(trimethylsilyl)benzamide], the inhibition at 0.1 ppm (0.1 ppm in minimal media agar) is < 0%. Moreover, the inhibition at 1 ppm (1 ppm in minimal media agar) came to 2%. Also, the inhibition at 10 ppm (10 ppm in minimal media agar) stood at 61%.

The values are drawn from patent US6410558B1, “Fungicides for the control of take-all disease of plants” (Monsanto Technology LLC, priority 1991, dated 2002).
